Test results taken from PubChem BioAssay (NCI).
Several values for one entry are separate records, joined by “and”; a condition that tells them apart may be missing. Equal entries are not always repeated.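 Method: 48-hour compound exposure of cells in 96-well plates, five concentrations, linear interpolation of endpoints. GI50: concentration for 50% inhibition of growth. At the TGI there is no net growth.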

Tests used:
Experiment in all cases: NCI-60 cell line screen, 48 h
786-0 renal = test system: 786-0 renal
MOLT-4 leukemia = test system: MOLT-4 leukemia
TK-10 renal = test system: TK-10 renal
SR leukemia = test system: SR leukemia
U251 CNS = test system: U251 CNS
DU-145 prostate = test system: DU-145 prostate
HCC-2998 colon = test system: HCC-2998 colon
BT-549 breast = test system: BT-549 breast
HL-60(TB) leukemia = test system: HL-60(TB) leukemia
NCI/ADR-RES ovarian = test system: NCI/ADR-RES ovarian

Compound | GI50 (786-0 renal) | TGI (786-0 renal) | GI50 (MOLT-4 leukemia) | TGI (MOLT-4 leukemia) | GI50 (TK-10 renal) | TGI (TK-10 renal) | GI50 (SR leukemia) | TGI (SR leukemia) | GI50 (U251 CNS) | TGI (U251 CNS) | GI50 (DU-145 prostate) | TGI (DU-145 prostate) | GI50 (HCC-2998 colon) | TGI (HCC-2998 colon) | GI50 (BT-549 breast) | TGI (BT-549 breast) | GI50 (HL-60(TB) leukemia) | TGI (HL-60(TB) leukemia) | GI50 (NCI/ADR-RES ovarian) | TGI (NCI/ADR-RES ovarian)
CCCCCCCCCCCCCCCCCC1=NC(C)(C)CN1CCO | 1.73 µM | 3.2 µM | 1.96 µM | 4.73 µM | 1.73 µM | 3.31 µM | 1.5 µM | 4.02 µM | 1.65 µM | 3.01 µM | 1.81 µM | 3.27 µM | 1.71 µM | 3.11 µM | 19.8 µM | 48 µM | 1.81 µM | 4.11 µM | 3.16 µM | 11.5 µM
CCC1(N2C(=O)c3c(F)c(F)c(F)c(F)c3C2=O)C(=O)NC(=O)N(c2ccccc2)C1=O (configuration not stated) | 3.34 µM | 13.9 µM | 2.64 µM | 6.35 µM | 2.4 µM | 5.57 µM | 0.496 µM | 4.32 µM | 1.53 µM | 3.07 µM | 4.87 µM | 17.9 µM | – | – | 2.1 µM | 4.76 µM | 2.67 µM | 4.57 µM | 7.69 µM | 27.1 µM
CN1CCN(C(=S)SCN2C(=O)c3ccccc3S2(=O)=O)CC1 | 12 µM | 43 µM | 5.08 µM | 25.7 µM | 43.4 µM | > 100 µM | 4.04 µM | 13.4 µM | 26.5 µM | > 100 µM | 26.4 µM | > 100 µM | 30.9 µM | 85.3 µM | > 100 µM | > 100 µM | 0.492 µM | 20.3 µM | 34 µM | > 100 µM
CN(C)c1ccc(Sc2ccc3nc(N)nc(N)c3c2)cc1 | 0.495 µM | 2.5 µM | 0.635 µM | 16 µM | 4.11 µM | 15.5 µM | 0.629 µM | 6.71 µM | 0.446 µM | 4.14 µM | 0.793 µM | 12.1 µM | 0.848 µM | 4.84 µM | 3.28 µM | 19.5 µM | 0.444 µM | 2.2 µM | 0.743 µM | 14.9 µM
Cc1csc(Nc2nc(-c3cccc(Cl)c3)nc(C(Cl)(Cl)Cl)n2)n1 | 11 µM | > 33.3 µM | 14 µM | > 33.3 µM | 2.51 µM | 14.4 µM | 16.8 µM | > 33.3 µM | 1.4 µM | 19.9 µM | 0.713 µM | 2.01 µM | 1.22 µM | 4.71 µM | > 33.3 µM | > 33.3 µM | 0.994 µM | 3.81 µM | 4.15 µM | > 33.3 µM
O=C(NO)C(O)C(O)C(O)C(O)CO (configuration not stated) | > 100 µM and 55.9 µM | > 100 µM | > 100 µM | > 100 µM | > 100 µM | > 100 µM | 75.9 µM | > 100 µM | > 100 µM | > 100 µM | 40 µM and > 100 µM | > 100 µM | > 100 µM | > 100 µM | > 100 µM | > 100 µM | > 21.5 µM | > 21.5 µM | > 100 µM | > 100 µM
CCOC(=O)C1=C(c2ccccc2)N(Cc2ccccc2)C2(O)C=CC(=O)C3C(=O)N(c4ccccc4)C(=O)C132 (configuration not stated) | 2.11 µM | 5.34 µM | 1.89 µM | 5.01 µM | 2.71 µM | 7.24 µM | 1.17 µM | 4.13 µM | 1.51 µM | 2.93 µM | 1.65 µM | 3.92 µM | 1.77 µM | 3.26 µM | 1.76 µM | 3.58 µM | 1.8 µM | 4.58 µM | 2.98 µM | 17 µM
O=C(Nc1ccccc1)Nc1ccccc1CNc1nc(Nc2ccc(OCCN3CCCC3)cc2)ncc1Cl | 1.11 µM | 2.78 µM | 2.96 µM | 20 µM | 4.36 µM | 15 µM | 1.91 µM | > 50 µM | 1.93 µM | 13.7 µM | 5.55 µM | 12.4 µM | 5.23 µM | 11.3 µM | 5.05 µM | 11.4 µM | 1.06 µM | 2.5 µM | 8.79 µM | 28.2 µM
COc1ccc(S(=O)(=O)NCCNc2nccc(-c3c(-c4ccccc4)nc4sccn34)n2)cc1 | 3.42 µM | > 100 µM | – | – | 5.07 µM | > 100 µM | 0.784 µM | > 100 µM | 5.17 µM | > 100 µM | 3.37 µM | > 100 µM | 16.1 µM | > 100 µM | 3.56 µM | > 100 µM | 2.87 µM | > 100 µM | 5.18 µM | > 100 µM
O=C(CN=Cc1cccs1)CSC(c1ccccc1)c1ccccc1 | 34 µM | > 100 µM | 18.5 µM | 69.1 µM | 30.5 µM | > 100 µM | 17.1 µM | 54.1 µM | 34.5 µM | > 100 µM | 34 µM | > 100 µM | 29.3 µM | 93.3 µM | 18.4 µM | 40 µM | 18.9 µM | 41.9 µM | 24.9 µM | 88.8 µM
O=[N+]([O-])c1cccc(-c2ncc(-c3ccc(Cl)cc3Cl)[nH]2)c1 | 5.16 µM | 11 µM | 2.49 µM | 6.34 µM | 3.3 µM | 13.1 µM | 0.471 µM | 2.44 µM | 2.67 µM | 6.96 µM | 4.46 µM | 10.5 µM | 7.36 µM | 16.4 µM | 3.05 µM | 8.07 µM | 3.8 µM | 17.3 µM | 11.6 µM | > 83.3 µM
CC(=O)N[C@@H]1CCC[C@H](C(=O)Nc2cc(-c3cnn4c3CC(C)(C)C4)c(Cl)cn2)C1 | < 0.01 µM | 29.6 µM | < 0.0117 µM | 0.13 µM | < 0.01 µM | > 100 µM | < 0.01 µM | 1.21 µM | < 0.01 µM | > 100 µM | 0.0102 µM | > 100 µM | < 0.0149 µM | 0.237 µM | < 0.01 µM | 0.0499 µM | < 0.01 µM | < 0.017 µM | 0.199 µM | > 100 µM
CC(=O)Nc1ccc(-n2cnc3cc(-c4ccc(OCCN5CCCCC5)cc4)ccc32)cc1 | 0.803 µM | 1.7 µM | 5.71 µM | 25 µM | 9.11 µM | 15.9 µM | 0.895 µM | 3.74 µM | 4.16 µM | 9.14 µM | 10.2 µM | > 33.3 µM | 5.98 µM | 14.6 µM | 4.88 µM | 9.77 µM | 5.26 µM | 18.2 µM | 7.75 µM | 22.5 µM
CCOc1cccnc1/C=N/NC(N)=S | 3.66 µM | > 100 µM | 3.13 µM | 10.4 µM | – | – | 2.98 µM | 12.3 µM | 2.9 µM | > 100 µM | 3.53 µM | > 100 µM | – | – | 6.02 µM | > 100 µM | 2.42 µM | 6.16 µM | 3.99 µM | > 100 µM
C=CC[PH+](c1ccccc1)c1ccccc1.C=CC[PH+](c1ccccc1)c1ccccc1.[Cl][Pt][Cl] | 12.6 µM | 25.5 µM | 3.11 µM | 14 µM | 13.4 µM | 32.7 µM | 2.84 µM | 11.7 µM | 7.45 µM | 22.3 µM | 12.7 µM | 30.2 µM | 15 µM | 29.9 µM | 17.1 µM | 35.4 µM | 3.34 µM | 14 µM | 25.1 µM | > 100 µM
O=C(CC(C(=O)O)N1CCOCC1)c1ccccc1 (configuration not stated) | – | 30.1 µM | – | 35.5 µM | – | 30.1 µM | – | 35.5 µM | – | 30.9 µM | – | 69.4 µM | – | – | – | 33.5 µM | – | 43.6 µM | – | > 100 µM
C=C(C)[C@]12CC(C)C34OC(/C=C\C=C\CCCCCCCCC)(O[C@@H]1[C@@H]3[C@@H]1O[C@]1(CO)[C@@H](O)[C@]1(O)C(=O)C(C)=C[C@@H]41)O2 (some centres not stated) | – | 21.5 µM | – | – | – | 19.1 µM | – | 15.8 µM | – | 49.9 µM | – | 22.1 µM | < 0.0001 µM | – | – | 18.5 µM | < 0.0001 µM | > 20.5 µM | – | 45.2 µM
CCCCCCN1C(=O)CN=C1Nc1ccc2cc3ccc(NC4=NCC(=O)N4CCCCCC)cc3nc2c1 | 1.56 µM | 2.95 µM | – | – | 1.56 µM | 3.63 µM | 1.53 µM | 4.22 µM | 1.63 µM | 3.13 µM | 1.94 µM | 4.21 µM | 1.58 µM | 3.04 µM | 3.46 µM | 17.6 µM | 1.96 µM | 4.16 µM | 3.32 µM | 15 µM
COc1ccc(N=C2NN=C(c3c[nH]c4ccccc34)CS2)cc1OC | 12 µM | > 91.5 µM | 3.29 µM | > 100 µM | 38 µM | > 100 µM | 0.181 µM | > 100 µM | 6.38 µM | > 100 µM | 19.5 µM | > 87.7 µM | 9.57 µM | > 48.3 µM | 4.2 µM | > 42.5 µM | – | – | 3.15 µM | > 28 µM
